Measured values: paper PMC8630787 (ACS Sensors, 2021)

biological target: dihydroorotate dehydrogenase (DHODH) (Homo sapiens, UniProt Q02127); assay: colorimetric DCIP reduction enzyme assay ([…] DHODH, L-DHO, coenzyme Q10); type: biochemical
Sequence (Q02127 whole entry): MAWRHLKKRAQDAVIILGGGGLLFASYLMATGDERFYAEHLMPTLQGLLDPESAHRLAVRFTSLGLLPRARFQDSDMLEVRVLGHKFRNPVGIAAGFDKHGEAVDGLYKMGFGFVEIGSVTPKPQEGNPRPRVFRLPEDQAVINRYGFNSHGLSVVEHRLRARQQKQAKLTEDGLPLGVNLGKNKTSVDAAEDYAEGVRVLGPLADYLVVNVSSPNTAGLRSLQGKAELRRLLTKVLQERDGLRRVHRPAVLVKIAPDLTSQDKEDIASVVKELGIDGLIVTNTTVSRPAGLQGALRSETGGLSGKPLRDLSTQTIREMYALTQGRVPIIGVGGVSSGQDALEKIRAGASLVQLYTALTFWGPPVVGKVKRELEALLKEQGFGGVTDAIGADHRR

SMILES | IC50 [nM]
C/C(O)=C(\C#N)C(=O)Nc1ccc(OC(F)(F)F)cc1 [CF3O-TF] | 330
C/C(O)=C(\C#N)C(=O)Nc1ccc(S(F)(F)(F)(F)F)cc1 [SF5-TF] | 580
C/C(O)=C(\C#N)C(=O)Nc1cc(C(F)(F)F)cc(C(F)(F)F)c1 [di-CF3-TF] | 1320
